In ChEMBL document CHEMBL1150881, “Glacins A and B: two novel bioactive mono-tetrahydrofuran acetogenins from Annona glabra” (J Nat Prod, 1998) one finds EC50 and LC50 data, which are given here for three compounds.

Data set [1] deals with A549. Briefly: Cytotoxicity against human A549 cells after 7 days by MTT assay. Particulars: A549, 168 h, read-out: ED50 (the source's name). In kind it is functional. (In general: Tetrazolium assays rely on reduction of a dye to a coloured formazan, in cell work by metabolically active cells.)
The subject of data set [2] is A498. Briefly: Cytotoxicity against human A498 cells after 7 days by MTT assay. In kind it is functional. Particulars: A498, 168 h, read-out: ED50 (the source's name).
Data set [3] concerns MCF7. The data set can be described thus: Cytotoxicity against human MCF7 cells after 7 days by MTT assay. In kind it is functional. Conditions: MCF7, 168 h, read-out: ED50 (the source's name).
The test system of data set [4] is MIA PaCa-2. The data set can be described thus: Cytotoxicity against human MIAPaCa2 cells after 7 days by MTT assay. In kind it is functional. Conditions: MIA PaCa-2, 168 h, read-out: ED50 (the source's name).
Data set [5] relates to PC-3. Briefly: Cytotoxicity against human PC3 cells after 7 days by MTT assay. In kind it is functional. Particulars: PC-3, 168 h, read-out: ED50 (the source's name).
The subject of data set [6] is HT-29. Briefly: Cytotoxicity against human HT-29 cells after 7 days by MTT assay. In kind it is functional. Particulars: HT-29, 168 h, read-out: ED50 (the source's name).
The nature of data set [7]: Toxicity in Artemia salina. In kind it is organism-based. Conditions: in vivo.

In brackets after ≈: the same amount, converted by molar mass.

As for `COc1cccc2c1C(=O)c1c(O)c3c(c(O)c1C2=O)C[C@@](O)(C(=O)CO)C[C@@H]3O[C@H]1C[C@H](N)[C@H](O)[C@H](C)O1` [DOXORUBICIN], the EC50 in data set [1] turned out to be 0.0191 µg/mL (≈ 0.0351 µM); in data set [2], 0.0062 µg/mL (≈ 0.0114 µM); in data set [3], 0.179 µg/mL (≈ 0.329 µM); in data set [4], 0.0153 µg/mL (≈ 0.0281 µM); in data set [5], 0.046 µg/mL (≈ 0.0846 µM); in data set [6], 0.0278 µg/mL (≈ 0.0511 µM).

Consider `CCCCCCCCCC[C@@H](O)[C@H]1CC[C@H]([C@H](O)CCCC[C@H](O)CCCCCCC[C@@H](O)CC2=C[C@H](C)OC2=O)O1` [GLACIN A], for which the EC50 in data set [1] was 1.53 µg/mL (≈ 2.56 µM); in data set [2], 1.25 µg/mL (≈ 2.09 µM); in data set [3] it was 0.00442 µg/mL (≈ 0.00741 µM); in data set [4], 0.00857 µg/mL (≈ 0.0144 µM); in data set [5], 0.00981 µg/mL (≈ 0.0164 µM); in data set [6], 2.3 µg/mL (≈ 3.85 µM). In data set [7], this compound had a median lethal concentration (LC50) of 0.11 µg/mL (≈ 0.184 µM).

As to `CCCCCCCCCC[C@H](O)[C@@H](O)CCCC[C@H]1CC[C@H]([C@H]2CC[C@H]([C@H](O)CCCCC[C@@H](O)CC3=C[C@H](C)OC3=O)O2)O1` [GLACIN B], the EC50 in data set [1] worked out at 1.29 µg/mL (≈ 2.02 µM); in data set [2] it was 2.61 µg/mL (≈ 4.08 µM); in data set [3], 0.052 µg/mL (≈ 0.0814 µM); in data set [4], 0.0274 µg/mL (≈ 0.0429 µM); in data set [5], 0.0559 µg/mL (≈ 0.0875 µM); in data set [6], 0.0868 µg/mL (≈ 0.136 µM). The compound also had an LC50 in data set [7] of 0.27 µg/mL (≈ 0.423 µM).

Usually LC50 stands for the concentration lethal to half of the exposed cells or organisms.
